Data from patent US20250032425A1, “FIRST IN CLASS USE OF ESTROGEN RECEPTOR BETA AGONISTS IN TREATING ANGELMAN SYNDROME AND RELEVANT AUTISM SPECTRUM DISORDERS” (BROWN UNIVERSITY, priority 2023, published 2025).
Entries after “also recorded” stand apart in the source; their conditions may differ. One block for each molecule: values may come before it.

Legend:
Format in all cases: cell-based, human
UBE3A-deficient iOPCs = test: Ki67 (and PCNA) immunoblotting in UBE3A-knockdown iOPCs: compound screen and rescue of proliferation; conditions: for impact of UBE3A loss on OPC proliferation (FIG. 18F, 19G): ERβ activators of different structural classes; for effect of AC-186 to enhance proliferation of iOPCs with UBE3A knockdown (Ki67): MEK inhibitor with AC-186 co-treatment (10 μM, 24 hours); for restoration of Ki67 expression in compound screen: Ki67 immunoblotting normalized to siNC=1.0
Procedure: Given the scarcity of knowledge regarding UBE3A function in oligodendrocyte biology, a comprehensive exploration of various cellular functions was performed, leveraging the high-throughput capabilities of the iPSC-based methodology (e.g., as described herein). We selected over 45 compounds with known targeted cellular actions (Table 1). These were chosen based on their documented effects on UBE3A, their ability to promote oligodendrocyte development and myelination, or their protective 10 roles in neural tissue. UBE3A expression was modulated using siRNA, achieving a controlled reduction that decreased OPC proliferation by approximately 50%, as evidenced by Ki67 protein levels.
iPSC Culturing and Generation of Induced Human Brain Cells Including Oligodendroglia, Neurons (IN), Astrocytes (iAs) and Microglia (iMG) The generation of iPSC-derived human oligodendrocyte precursor cells (iOPCs) was carried out according to a previously published protocol by Vulakh and Yang et al., 2023 (Characterizing the Neuron-Glial Interactions by the Co-cultures of Human iPSC-Derived Oligodendroglia and Neurons. Methods Mol. Biol. 2683), which itself was a modification of an earlier protocol by Assetta et al., 2020 (Generation of Human Neurons and Oligodendrocytes from Pluripotent Stem Cells for Modeling Neuron-Oligodendrocyte Interactions. J Vis Exp.). The process began with the control iPSCs, which is a well-characterized control reference line acquired from the NIH-funded iPSC Neurodegenerative Disease Initiative (INDI, (Ramos, D. M., Skarnes, W. C., Singleton, A. B., Cookson, M. R., and Ward, M. E. (2021). Tackling neurodegenerative diseases with genomic engineering: A new stem cell initiative from the NIH. Neuron 109, 1080-1083. 10.1016/j.neuron.2021.03.022)), distributed by the Jackson Laboratory. These iPSCs were maintained in mTeSR plus medium (StemCell Technologies, #05825) and expanded in Stem Flex medium (Fisher Scientific. #A3349401) for the induction of neural progenitor cells (INPC). The iNPCs were derived by treating iPSCs with a commercial SMAD inhibitor medium (StemCell Technologies, #08582) for 7 days (Week 1). Subsequently, NPCs were further induced to become OPCs by a 7-day incubation (Week 2) with a chemically-defined OPC medium: DMEM/F12 medium (Thermo Fisher, #11320033) supplemented by 10 ng/ml PDGF-AA (R&D Systems, #221-AA-025), 1 μM SAG (Tocris, #4366), […] N-Acetyl-Cysteine (Millipore Sigma, #A9165-5G), 20 ng/mL bFGF (R&D Systems, #233-FB-025/CF), 1% N2 supplement (Thermo Fisher, #17502048), and 1% B27 supplement (Thermo Fisher, #17504044). […] The additional incubation with OL medium for 7-14 days (Week 4-5) yielded mature, myelinating OLs.
(§1) The siRNAs targeting UBE3A (Thermo Fisher, #4390815 and #4390816), estrogen receptors (Thermo Scientific #145909 for ESRβ, #145539 for ESRα, and #4390824 for GPER), and negative control (Thermo Scientific, #AM4615) were obtained commercially. The 10-20 nM final concentration was used with Lipofectamine RNAiMAX transfection reagent (Thermo Scientific #13778075) and incubated for at least 48 hours before the treatments of therapeutic compounds or other reagents.
Cells were collected by fast spin down in centrifuge tubes before lysis in RIPA buffer (ThermoFisher, #89901) supplemented with proteinase inhibitor cocktail (Sigma-Aldrich, #5892791001) on ice. Lysates were then spun down at 15000 rpm for 10 mins, the supernatant was collected and mixed with 4× Laemmle sample buffer (Bio-Rad, #1610747) and cooked 10 mins before SDS-PAGE and transferred with Bio-Rad fast transfer system, the membranes were blocked for one hour in 1× Tris Buffered Saline (TBS) with 1% Casein buffer (Bio-Rad, #1610782) and incubated with primary antibodies overnight at 4 degrees. […]

[1] = tested on: iOPCs expressing Cas9 and a sgRNA targeting UBE3A; test: EdU incorporation in iOPCs with CRISPR/Cas9 UBE3A depletion (Lenti-sgUBE3A #1-3); conditions: 10 μM; any of the sgRNAs
Procedure: The sgRNAs targeting UBE3A, and negative control were obtained from Applied Biological Materials Inc. Targeting sgRNA sequences against UBE3A are: sgRNA1, […]; sgRNA2, […]; sgRNA3, […]. These sgRNAs were integrated into the backbone of the negative control pLenti-U6-sgRNA-SFFV-Cas9-2A-Puro. All constructs were packaged into lentiviruses and concentrated by Lenti-X Concentrator (Takara Bio #631231). In each experiment, 5-10 μl of concentrated virus was administered into ˜70% confluent iOPCs cultures in 6-well plates. One day post-lentiviral transduction, iOPC cultures were treated with approximately 5 μg/ml Puromycin to isolate those iOPCs which are expressing Cas9/sgRNAs. Following a day of selection, the iOPCs were then seeded on gelatin-coated coverslips placed in 24-well plates at a density of 100,000 cells per well. After another day allowed for cell stabilization, treatment with either the vehicle control (DMSO), AC-186, DPN, or LY500307 commenced at a standard concentration of 10 μM. A final 24-hour period after this treatment saw the cells exposed to […] for three hours, preparing them for subsequent immunofluorescence staining.
The EdU labeling kit from ThermoFisher Scientific (#C10637) was used to trace cell proliferation by incubating iOPCs with 2 μM EdU for three hours before fixation. Following EdU incorporation, cells were fixed in 4% paraformaldehyde, blocked with normal serum, and stained with primary antibodies, Rabbit anti-Ki67 and Mouse anti-UBE3A. These steps were conducted according to the manual of the labeling kit and also detailed immunofluorescence staining protocols described below, to ensure specific detection of the proliferation marker Ki67 and the ubiquitin-protein ligase UBE3A in the cells for subsequent imaging analysis.

[2] = tested on: ERK/MAPK signaling pathway; test: ERK/MAPK and S6 activation in iOPCs by immunoblotting (phosphorylated to total ratio); conditions: MEK inhibitor added to UBE3A-depleted OPCs with AC-186
From the text: FIGS. 20A-20E depict the identification of ESR-β signaling pathway in regulating OPC proliferation impaired by UBE3A depletion. FIG. 20A: Immunofluorescence to track estrogen receptor (ESR) expression in OPCs, by staining of all 3 ESRs, ESR-α, ESR-β and GPER (top panels), in iOPCs co-labeled with UBE3A (middle panels) and DAPI; scale bar, 100 μm. […] FIG. 20B: Immunoblotting to assess OPC expression of individual ESRs, by analyzing protein levels of ESR-α, ESR-β and GPER in iOPCs treated with siNC or siUBE3A, normalized to GAPDH and expressed relative to the siNC condition (set as 1.0). After treatment with siUBE3A, expression of ESR-β was decreased, while expression of GPER was increased. n=5-6 experiments. FIG. 20C: The activation of the ERK/MAPK signaling pathway in OPCs, particularly downstream of ESR-β, was analyzed in iOPCs subjected to 6 knockdown conditions: siNC, siUBE3A, siESRα, siESRβ, and combinations of siUBE3A with siESRα or siESRβ. These were followed by treatment with vehicle control or the ESR-β agonist AC-186 (10 μM, 30 min). The activation of ERK and its substrate S6 was determined by the ratio of phosphorylated to total ERK and S6 levels, adjusted relative to the vehicle control group (standard value of 1.0). ERK phosphorylation and S6 phosphorylation was decreased in cells treated with siESRβ, or siESRβ and siUBE3A combined. n=3 experiments. FIG. 20D: Immunoblotting to evaluate the role of ERK/MAPK activation in the restoration of OPC proliferation following ESR-β activation, with the addition of ERK phosphorylation inhibitors U0126 or PD98059 to UBE3A-depleted OPCs, with or without AC-186 co-treatment (10 μM. 24 hours). The quantification of Ki67 expression and UBE3A levels, being normalized to β-tubulin (TUBB1) and compared to the siNC condition (value of 1.0). n=5 experiments. FIG. 20E: A schematic depicting the regulatory role of ESR-β signaling pathway in OPC proliferation, identified by combining genetic knockdown techniques and pharmacological interventions. Activation of ESR-β selectively triggers the ERK/MAPK pathway, as shown by ERK phosphorylation and the ERK substrate S6 activation, essential for cell proliferation. […] As applicable: statistical significance was determined using One-way ANOVA followed by post-hoc comparisons, with selected comparisons presented. Significance levels marked as *p<0.05. ** p<0.005. *** p<0.001. **** p<0.0001, ns not significant, across relevant comparisons.
as §1
Cells were collected by fast spin down in centrifuge tubes before lysis in RIPA buffer (ThermoFisher, #89901) supplemented with proteinase inhibitor cocktail (Sigma-Aldrich, #5892791001) on ice. Lysates were then spun down at 15000 rpm for 10 mins, the supernatant was collected and mixed with 4× Laemmle sample buffer (Bio-Rad, #1610747) and cooked 10 mins before SDS-PAGE and transferred with Bio-Rad fast transfer system, the membranes were blocked for one hour in 1× Tris Buffered Saline (TBS) with 1% Casein buffer (Bio-Rad, #1610782) and incubated with primary antibodies overnight at 4 degrees. After 3 times washing in TBST washing buffers (ThermoFisher, #28352), the membranes were incubated with HRP conjugated antibodies and developed with Clarity Max™ Western ECL Substrate (Bio-Rad, #1705062) before being filmed in the iBright imaging system.

[3] = tested on: UBE3A-deficient iOPCs and iOLs; test: Oligodendrocyte differentiation of UBE3A-deficient iOPCs into iOLs (immunoblotting of Ki67, MAG, CNPase); conditions: UBE3A-deficient iOLs; AC-186 (10 µM), clemastine (2.5 μM); 3 days
Procedure: FIG. 25C: Immunoblotting was conducted to assess the impact of UBE3A depletion on ESR-β expression during oligodendrocyte differentiation. Protein levels of ESR-β in UBE3A-deficient iOPCs and subsequently differentiated iOLs were quantified, normalized against the loading control GAPDH, and expressed relative to the iOPC+siNC control condition (set at 1.0). […] Levels of Ki67 and Myelin Associated Glycoprotein (MAG) were measured in UBE3A-deficient iOPCs and iOLs differentiated from them, normalized against GAPDH, and compared to the iOPC+siNC condition. n=4 experiments. FIG. 25E: Immunoblotting to examine the role of UBE3A for OPC self-renewal and oligodendrocyte differentiation across different developmental stages. Expression of maturation and myelination markers (MBP, MAG, PLP1, CNPase) was quantified following UBE3A depletion timed from iOPCs to pre-iOLs, normalized against TUBB1. and compared to the iOPC+siNC control condition (set at 1.0). n=4 experiments.

[4] = tested on: AS iOPCs differentiated into iOLs; test: Differentiation of AS patient-derived iOPCs into iOLs (MAG, CNPase, MBP); conditions: AC-186 10 μM or clemastine 2.5 μM, 72 hours
[5] = siUBE3A cells, 10 μM, 24 hours, normalized to GAPDH

Molecule: Oc1ccc([C@@H]2Oc3ccc(O)cc3[C@@H]3CCC[C@@H]32)cc1 [LY500307, reference compound]
- impact of UBE3A loss on OPC proliferation (FIG. 18F, 19G) (UBE3A-deficient iOPCs): similarly mitigated the impact of UBE3A loss on OPC proliferation
- Ki67 expression (FIG. 19G) (UBE3A-deficient iOPCs; [5]): increased expression
- PCNA expression (FIG. 19G) (UBE3A-deficient iOPCs; [5]): increased expression
- number of EdU+ cells [1]: increased the number of EdU+ cells

Molecule: O=C1C[C@@H](c2ccc(O)cc2)Oc2cc(O)ccc21 [Liquiritigenin, reference compound]
- impact of UBE3A loss on OPC proliferation (FIG. 18F, 19G) (UBE3A-deficient iOPCs): similarly mitigated the impact of UBE3A loss on OPC proliferation

Molecule: COc1cccc(-c2cc(=O)c3ccccc3o2)c1N [PD98059, reference compound]
- ERK/MAPK pathway activation stimulated by AC-186 [2]: inhibited
- effect of AC-186 to enhance proliferation of iOPCs with UBE3A knockdown (Ki67) (UBE3A-deficient iOPCs): reduced

Molecule: N#CC(=C(/N)Sc1ccccc1N)/C(C#N)=C(\N)Sc1ccccc1N [U0126, reference compound]
- ERK/MAPK pathway activation stimulated by AC-186 [2]: inhibited
- effect of AC-186 to enhance proliferation of iOPCs with UBE3A knockdown (Ki67) (UBE3A-deficient iOPCs): reduced

Molecule: Oc1ccc(-c2nc3cc(O)cc(Br)c3o2)cc1 [WAY-200070, reference compound]
- impact of UBE3A loss on OPC proliferation (FIG. 18F, 19G) (UBE3A-deficient iOPCs): similarly mitigated the impact of UBE3A loss on OPC proliferation

- oligodendrocyte differentiation (MAG), FIG. 25D [3]: enhanced differentiation
Molecule: CN1CCC[C@@H]1CCO[C@](C)(c1ccccc1)c1ccc(Cl)cc1 [clemastine, Clemastine, reference compound]
- oligodendrocyte differentiation (MAG, CNPase, MBP) [4]: positively influenced the differentiation process

Molecule: FGF: fibroblast growth factor; bFGF, human recombinant
- restoration of Ki67 expression in compound screen (UBE3A-deficient iOPCs; 10 μM, 24 hours): restored; also recorded: effectively normalized proliferation levels; also recorded: Statistically significant; also recorded: capable of restoring Ki67 expression

B1: BDNF: brain-derived neurotrophic factor, human recombinant; neurotrophin that belongs to NGF-beta family (protein, UniProt P23560 19-247, looked up)
Neurotrophic factor BDNF …: APMKEANIRGQGGLAYPGVRTHGTLESVNGPKAGSRGLTSLADTFEHVIEELLDEDQKVRPNEENNKDADLYTSRVMLSSQVPLEPPLLFLLEEYKNYLDAANMSMRVRRHSDPARRGELSVCDSISEWVTAADKKTAVDMSGGTVTVLEKVPVSKGQLKQYFYETKCNPMGYTKEGCRGIDKRHWNSQCRTTQSYVRALTMDSKKRIGWRFIRIDTSCVCTLTIKRGR
- restoration of Ki67 expression in compound screen (UBE3A-deficient iOPCs; 10 μM, 24 hours): restored; also recorded: effectively normalized proliferation levels; also recorded: Statistically significant; also recorded: capable of restoring Ki67 expression
